# Assay results taken from patent publication US20070059385A1, “Safe pharmaceutical composition for treating and preventing cancer and method of use” (priority 2005, published 2007).
# Tested on: kidney cell cultures
# Assay: Analysis of chromosomes (chromosomal aberrations in kidney)
# Type: in vivo
# Protocol: For metaphase chromosomes, kidney cell cultures were treated with colchicines (0.4 μg/ml) for 3-4 hours. The cells were then trypsinized and treated with hypotonic solution (0.075 M KCl) at 37° C. for 30 minutes. The cell suspensions were centrifuged and the pellets fixed in cold acetic acid:methanol (1:3) solution. Slides were prepared by standard air-drying method and stained with 2% Giemsa solution. The results scored by analyzing at least 200 well spread metaphases with 44±2 chromosomes for gaps, chromatid and chromosome breaks and exchanges, and association. Chromatid and chromosome aberrations were scored separately, and the total percentage was subjected to statistical analysis. Gaps were recorded but not included in the total frequency. Endoreduplication (endomitosis) was estimated from at least 500 cells/animal and expressed as a percentage.
# [1] = duration of treatment 0.5 months
# [2] = duration of treatment 1.0 months
# [3] = duration of treatment 2.0 months
# [4] = duration of treatment 3.0 months
# [5] = duration of treatment 4.0 months
# [6] = duration of treatment 5.0 months
structure (smiles),measurement,setting,value
"COC(=O)C[C@](O)(CCCC(C)(C)O)C(=O)O[C@@H]1C(OC)=C[C@]23CCCN2CCc2cc4c(cc2[C@H]13)OCO4 [HHT, Homoharringtonine]",% Aberrant cells (mean ± SEM),[1],0.5 ± 0.1%
same,"Aberration/100 cells, Chromosome Breaks",[1],0.1 /100 cells
same,% Aberrant cells (mean ± SEM),[2],0.8 ± 0.2%
same,"Aberration/100 cells, Chromosome Breaks",[2],0.5 /100 cells
same,% Aberrant cells (mean ± SEM),[3],1.2 ± 0.4%
same,"Aberration/100 cells, Chromosome Breaks",[3],0.7 /100 cells
same,"Aberration/100 cells, Chromosome Exchanges",[3],0.1 /100 cells
same,% Aberrant cells (mean ± SEM),[4],1.8 ± 0.7%
same,"Aberration/100 cells, Chromosome Breaks",[4],0.9 /100 cells
same,% Aberrant cells (mean ± SEM),[5],2.6 ± 0.8%
same,"Aberration/100 cells, Chromosome Breaks",[5],1.2 /100 cells
same,"Aberration/100 cells, Chromosome Exchanges",[5],0.1 /100 cells
same,% Aberrant cells (mean ± SEM),[6],5.5 ± 0.5%
same,"Aberration/100 cells, Chromosome Breaks",[6],1.3 /100 cells
same,"Aberration/100 cells, Chromosome Exchanges",[6],0.2 /100 cells
